This is an account of results in paper PMC6511062, “Preclinical candidate for the treatment of visceral leishmaniasis that acts through proteasome inhibition” (Proceedings of the National Academy of Sciences of the …, 2019).

Experiment [1] concerns L. donovani (LV9). The experiment can be described thus: Mouse model of VL (in vivo efficacy in female Balb/C mice). Details: species or system Leishmania donovani. The settings on record: 30 mg/kg u.i.d. (10 days PO). Here is the method: Infected mice were dosed at 3, 10, or 25 mg/kg orally twice a day for 10 consecutive days. Two days after the termination of treatment, mice were euthanized, and the parasite burdens in their livers were determined.
Peripheral blood samples were obtained at 5, 15, 30 min, 1, 2, 4, 6 ,8 and 24 h after intravenous administration and 15, 30, 45 min,1, 2, 4, 6, 8 and 24 h after oral administration. Blood was 1/2 diluted with milliQ water and immediately frozen on dry ice until analysis. Quantification was performed by means of LC-MS/MS (API4000), with a lower limit of quantification of 1 ng/mL. […]
Data analysis and calculation of pharmacokinetic parameters was performed using Phoenix, WinNonLin Version 6.3. […]
For both intravenous and oral administration, the systemic exposures were determined by calculating the area under the blood concentration time curve (AUC) from the start of dosing to the last observed quantifiable concentration (AUC0-t) by using the linear up-log down trapezoidal rule. The slope of the terminal elimination phase was estimated by linear regression of the terminal data points (minimum 3 points) from a natural log concentration versus time plot of the data. The half-life (t1/2) of the terminal elimination phase was calculated as t1/2 = 0.693/λ.
7. In vivo efficacy in female Balb/C mice
To establish infection in mice, sodium stibogluconate-sensitive L. donovani (LV9, WHO designation: MHOM/ET/67/HU3) amastigotes were isolated from the spleen of a heavily infected donor hamster (Janvier, France)7. An inoculum containing 1.0 x 10^8 amastigotes/mL in Dulbecco’s modified eagles medium (high glucose) was prepared […]
and female BalbC mice (Harlan, UK) then infected intravenously via the tail vein with a 0.2 mL bolus (equivalent to ~2.0 x 10^7 amastigotes). Infection was left to establish for […]
daily orally as a suspension in 0.5% hydroxypropylmethylcellulose, 0.4% tween 80 and 0.5% benzyl alcohol. With twice daily regimens, the second daily dose was administered approximately 8 h following the first dose. Dose regimens evaluated were:
1. 50 mg/kg twice daily for 5 days
2. 25 mg/kg, 10 mg/kg and 3 mg/kg twice daily for 10 days
3. 25 mg/kg once daily for 10 days
Miltefosine, as the only oral treatment for visceral leishmaniasis, was used as a […]

Experiment [2] concerns L. donovani (LV9). Details: method as in PMID 11353640. As to conditions: similar mouse model, once daily; cited from earlier work.

For the compound `CCCCCCCCCCCCCCCCOP(=O)([O-])OCC[N+](C)(C)C` [miltefosine, reference compound], the “Reduction in parasite burden (compared to the vehicle control group)” value in experiment [1] is listed as 99.9%. The ED90 in experiment [2] is given as 27 mg/kg.
